Test results published in publication PMC10065799, “High-throughput profiling of sequence recognition by tyrosine kinases and SH2 domains using bacterial peptide display” (eLife, 2023).

Columns and labels:
[1] = biological target: T1, c-Src kinase domain (Homo sapiens, UniProt P12931); experiment: RP-HPLC assay to measure peptide phosphorylation kinetics; format: biochemical; conditions: purified peptide substrate
[2] = biological target: T2, c-Abl kinase domain (Mus musculus, UniProt P00520); experiment: ADP-Quest continuous fluorimetric kinase assay (Michaelis-Menten parameters and initial rates); format: biochemical; conditions: c-Abl kinase domain 10 nM, 100 μM ATP, 37 °C, three to five replicates, error = standard error of global Michaelis-Menten fit
T2 sequence (P00520 242-493 limits assumed): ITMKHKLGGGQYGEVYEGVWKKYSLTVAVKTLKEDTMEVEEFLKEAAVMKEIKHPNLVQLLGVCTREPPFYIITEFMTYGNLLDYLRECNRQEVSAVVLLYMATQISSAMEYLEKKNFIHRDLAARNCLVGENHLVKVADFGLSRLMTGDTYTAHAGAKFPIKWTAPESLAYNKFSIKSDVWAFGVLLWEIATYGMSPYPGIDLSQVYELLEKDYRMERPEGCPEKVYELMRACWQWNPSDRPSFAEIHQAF
Text: A fluorescence-based assay from Eurofins (ADP Quest) was used to measure the Michaelis-Menten kinetic parameters for phosphorylation of the consensus peptides by purified tyrosine kinase domains. In this assay, ADP production as a result of kinase activity is coupled to the production of resorufin, a fluorophore that emits signal at 590 nm. For all experiments, the assay reactions were set up as described in the provided assay kit protocol, in a 384 well plate format. The peptide solutions were serially diluted in 100 mM Tris, pH 8.0, and the kinases were diluted to 50 nM in buffer (10 mM HEPES, 100 mM NaCl, 1 mM TCEP, 5 mM MgCl2, 10% (v/v) glycerol). The final reaction mixtures contained 10 nM of kinase with 100 μM of ATP. […] Phosphorylation reaction progress was monitored by measuring fluorescence at excitation 530 nm and emission 590 nm every 2 min at 37 °C on a plate reader (BioTek Synergy Neo 2). The fluorescence units (RFU) were converted to μM ADP by comparison to a standard curve, and the initial rates were extracted from the linear regime of the reaction progress curves. Initial rates were also measured for samples containing each kinase but lacking a peptide substrate, to account for background ATP hydrolysis. This background rate was subtracted from the rates measured in the presence of peptide. […]

[3] = biological target: T1, c-Src kinase domain; experiment: pTyr-Var library bacterial peptide display kinase screen (enrichment scores); format: biochemical; conditions: for Screen: sheet "Src";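 on AncSZ hit?: Hit requires p below 0.05 and at least twofold variant vs reference change plus filters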;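 on c-Src hit?: Hit requires p below 0.05 and at least twofold variant vs reference change plus filters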
[4] = system: Fes; experiment: as above; format: biochemical
[5] = system: Hck kinase domain; experiment: as above; format: biochemical, human
[6] = biological target: c-Src SH2 domain (Homo sapiens, UniProt P12931); experiment: pTyr-Var library SH2 domain screen with SH2-dynabeads (enrichment scores); conditions: sheet c-Src
[7] = system: FGFR3 kinase domain; experiment: pTyr-Var library bacterial peptide display kinase screen (enrichment scores); format: biochemical, human
[8] = system: EPHB2 kinase domain; experiment: as above; format: biochemical, human; conditions: for Screen: sheet EPHB2, effect of variant peptide relative to its reference peptide in the pTyr-Var library screen (enrichment scores);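 on screen: log2 fold change in enrichment of variant over reference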
[9] = system: Jak2; experiment: as above; format: biochemical, human
[10] = system: MERTK kinase domain; experiment: as above; format: biochemical, human
[11] = system: Grb2 SH2 domain; experiment: pTyr-Var library SH2 domain screen with SH2-dynabeads (enrichment scores)
[12] = system: FGFR1 kinase domain; experiment: pTyr-Var library bacterial peptide display kinase screen (enrichment scores); format: biochemical, human
[13] = system: EPHB1 kinase domain; experiment: as above; format: biochemical, human; conditions: for Screen: sheet EPHB1, effect of the variant peptide relative to its reference peptide in the pTyr-Var library screen (enrichment scores)
[14] = system: AncSZ kinase domain; experiment: as above; format: biochemical
[15] = system: Fer kinase domain; experiment: as above; format: biochemical, mouse; conditions: for Screen: sheet "Fer";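 on screen: log2 fold change in enrichment of variant over reference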
[16] = system: SHP2 C-SH2 domain; experiment: pTyr-Var library SH2 domain screen with SH2-dynabeads (enrichment scores)
[17] = biological target: T2, c-Abl kinase domain; experiment: pTyr-Var library bacterial peptide display kinase screen (enrichment scores); format: biochemical; conditions: for Screen: fig5-data2, sheet "Abl", Screen for the variant/reference peptide pair;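 on AncSZ hit?: Hit requires p below 0.05 and at least twofold variant vs reference change plus filters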;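 on c-Src hit?: Hit requires p below 0.05 and at least twofold variant vs reference change plus filters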
[18] = system: Fyn kinase domain; experiment: as above; format: biochemical, human
[19] = biological target: human c-Src kinase domain (residues 260-528) (human) (UniProt P12931)
[20] = effect of the variant peptide relative to its reference peptide in the pTyr-Var library screen
[21] = mean of log2 of enrichment over R1-R4
[22] = pTyr-Var library, enrichment score, replicate 1
[23] = pTyr-Var library, enrichment score, replicate 3
[24] = pTyr-Var library, enrichment score, replicate 4
[25] = variant versus reference peptide
[26] = variant versus reference peptide, significant hit TRUE/FALSE
[27] = mean of log2(variant) minus mean of log2(reference)
[28] = mean of log2 enrichment of variant peptide, n = 5
[29] = mean of log2 enrichment of variant peptide, n = 4
[30] = value of the variant peptide against its reference peptide in the pTyr-Var library screen with Fer

Q: How did the “Phosphorylation Rate” value [1] turn out when Ac-AGQEKYSAMRD-NH2 [HRAS-Y64-E63K] was run?
A: The value was 0.027 s⁻¹.

Q: For “Ac-GAPEVIYATPGAKKKG-NH2 [AblTide (2014), previously reported c-Abl consensus substrate]”, which Km [2] is on record?
A: Its Km is 35 ± 8 µM.

Q: And the kcat [2]?
A: The kcat was 2.5±0.2 s^–1.

Q: How did the “Phosphorylation Rate” value [1] turn out when “Ac-GPDEPIYDMFPFKKKG-NH2 [Src Consensus (C-2P), Src Consensus variant with –2 Pro]” was run?
A: The value was 12.667 s⁻¹.

Q: How did the “Phosphorylation Rate” value [1] turn out when “Ac-GPDESIYDMFPFKKKG-NH2 [Src Consensus (C-2S), Src Consensus variant with –2 Ser]” was run?
A: The value was 5.171 s⁻¹.

Q: What does the source list for “Ac-LERFIYNREEL-NH2 [HLA-DPB1_Y59_F64L_YF, pTyr-Var library variant peptide, non-canonical c-Src substrate]”?
A: Screen [3, 20]: 0.2529; Phosphorylation Rate [1]: 0.258 s⁻¹

Q: Ac-WDLSEYSFKDP-NH2 [ITGA3_Y237_YF] was tested. Which “Phosphorylation Rate” value [1] did it give?
A: Its value is 0.555 s⁻¹.

Q: Which results are given for DRVALYVAREG [AACS_Y117_I118V]?
A: c-Src mean of log2(enrichment) [3, 21]: -1.464; c-Src enrich. R1 [3, 22]: 0.3697; c-Src enrich. R3 [3, 23]: 0.2802; c-Src enrich. R4 [3, 24]: 0.4218; c-Src difference (mean log2 variant - mean log2 reference) [3, 25]: -0.2397; c-Src hit? [3, 26]: FALSE; Fes mean of log2(enrichment) ([4]; mean of log2 of enrichment over R1-R6): -0.04177; Fes difference (mean log2 variant - mean log2 reference) [4, 25]: -0.2234; Hck mean of log2(enrichment) ([5]; mean of log2(variant) / mean of log2(reference), R1-R4): 0.6801; Hck enrich. R1 [5, 22]: 1.248; Hck enrich. R3 [5, 23]: 0.3794; Hck enrich. R4 [5, 24]: 0.204; Hck difference (variant - reference) [5, 25]: 0.1112; Hck hit? [5, 26]: FALSE; difference [6, 27]: -0.4301; mean of log2(variant) ([6]; mean of log2 enrichment of variant peptide, R1-R3): -1.56; difference [7, 27]: -0.06288; mean of log2(variant) [7, 28]: -0.601; difference [8, 27]: 0.3459; mean of log2(variant) [8, 29]: -0.6512; Jak2 mean of log2(enrichment) ([9]; mean of log2 of enrichment over R1-R3): -0.2901; Jak2 enrich. R1 [9, 22]: 0.73; Jak2 enrich. R3 [9, 23]: 0.9423; Jak2 difference (mean log2 variant - mean log2 reference) [9, 25]: -0.3116; Jak2 hit? [9, 26]: FALSE; difference [10, 27]: -0.4526; mean of log2(variant) [10, 29]: -1.84; difference ([11]; Grb2 SH2, mean of log2(variant) minus mean of log2(reference)): -0.1132; mean of log2(variant) ([11]; Grb2 SH2, mean of log2 enrichment of variant, R1-R3): -0.29; hit? ([11]; Grb2 SH2, variant versus reference significant hit call): FALSE; difference [12, 27]: -0.08555; mean of log2(variant) [12, 28]: -1.047; difference [13, 27]: -0.2676; mean of log2(variant) [13, 29]: -0.8888; AncSZ mean of log2(enrichment) ([14]; mean of log2 of enrichment over R1-R5): -0.4041; AncSZ enrich. R1 [14, 22]: 1.153; AncSZ enrich. R3 [14, 23]: 0.7411; AncSZ enrich. R4 [14, 24]: 0.5554; AncSZ enrich. R5 ([14]; pTyr-Var library, enrichment score, replicate 5): 0.4897; AncSZ difference (mean log2 variant - mean log2 reference) [14, 25]: -0.326; AncSZ hit? [14, 26]: FALSE; Fer mean of log2(enrichment) [15, 21]: -1.031; Fer enrich. R1 [15, 22]: 0.6342; Fer enrich. R3 [15, 23]: 0.3786; Fer enrich. R4 [15, 24]: 0.4545; Fer difference (mean log2 variant - mean log2 reference) [15, 25]: 0.05113; Fer hit? [15, 26]: FALSE; difference ([16]; SHP2-C SH2, mean of log2(variant) minus mean of log2(reference)): -0.5364; mean of log2(variant) ([16]; SHP2-C SH2, mean of log2 enrichment of variant, R1-R3): -0.6877; hit? ([16]; SHP2-C SH2, variant versus reference significant hit call): FALSE; c-Abl mean of log2(enrichment) [17, 21]: -0.7858; c-Abl enrich. R1 [17, 22]: 0.555; c-Abl enrich. R3 [17, 23]: 0.7635; c-Abl enrich. R4 [17, 24]: 0.4657; c-Abl hit? [17, 26]: FALSE; Fyn mean of log2(enrichment) [18, 21]: -1.274; Fyn enrich. R1 [18, 22]: 0.7923; Fyn enrich. R3 [18, 23]: 0.2683; Fyn enrich. R4 [18, 24]: 0.2456; Fyn difference (mean log2 variant - mean log2 reference) [18, 25]: 0.04124; Fyn hit? [18, 26]: FALSE

Q: With HNLPIYEGFAL [ACTA1_Y168_V165L_YF] as the molecule, how does the Screen [3, 20] read?
A: The Screen was -0.1626.

Q: And the Screen [8]?
A: The Screen was -0.1826.

Q: What about the Screen [13] of the same molecule?
A: The Screen was -0.3324.

Q: And the Screen [15, 30]?
A: The Screen was -0.04484.

Q: And the Screen ([17]; pTyr-Var library)?
A: Its Screen is 0.278.

Q: Which results are given for LSIQTYSALNF [DES_Y423_P419S]?
A: Screen [3, 20]: -0.607; Screen [8]: -1.403; Screen [13]: -1.829; Screen [15, 30]: -2.047

Q: PHQTIYGALMI [FGF23_Y70_S71G] was tested. Which Screen [3, 20] did it give?
A: Its Screen is -0.7948.

Q: What about the Screen [8] of the same molecule?
A: The Screen was -2.622.

Q: And the Screen [13]?
A: The Screen was -3.192.

Q: And the Screen [15, 30]?
A: Its Screen is -2.622.

Q: How did the Screen [3, 20] turn out when QSSALYEDCFL [ASS1_Y83_R86C_YF] was run?
A: The Screen was 1.263.

Q: What about the Screen [8] of the same molecule?
A: The Screen was 1.929.

Q: What about the Screen [13] of the same molecule?
A: The Screen was 1.322.

Q: What about the Screen [15, 30] of the same molecule?
A: The Screen was 0.6979.

Q: With RNEAFYDTFST [EFCAB3_Y372_S370A] as the molecule, how does the Screen [3, 20] read?
A: Its Screen is -0.05343.

Q: And the Screen [8]?
A: The Screen was -2.77.

Q: And the Screen [13]?
A: The Screen was -3.139.

Q: What about the Screen [15, 30] of the same molecule?
A: Its Screen is -0.7665.

Q: What about the Screen ([17]; pTyr-Var library) of the same molecule?
A: Its Screen is 0.8648.

Q: What does the source list for RWQQLYDTLNA [EIF3M_Y351_Q346R]?
A: Screen [3, 20]: -0.1; Screen [8]: 0.365; Screen [13]: -0.05321; Screen [15, 30]: -0.4426

Q: TLSGIYQFSIA [FOXL2_Y81_I84S_YF] was tested. Which Screen [3, 20] did it give?
A: Its Screen is -0.1944.

Q: What about the Screen [8] of the same molecule?
A: Its Screen is -3.18.

Q: And the Screen [13]?
A: The Screen was -3.13.

Q: And the Screen [15, 30]?
A: The Screen was -1.302.

Q: With VFLGAYDCFLP [SLC22A5_Y486_R488C_YF] as the molecule, how does the Screen ([3]; variant peptide versus its reference peptide in the pTyr-Var library screen) read?
A: The Screen was 0.189.

Q: What about the Screen [8] of the same molecule?
A: The Screen was 1.473.

Q: What about the “Screen (variant relative to reference peptide, measured in the pTyr-Var library screen)” value ([13]; sheet "EPHB1", variant seq vs reference seq, bacterial peptide display enrichment) of the same molecule?
A: The value was 1.419.

Q: What about the Screen ([15]; variant peptide relative to its reference peptide, pTyr-Var library screen enrichment) of the same molecule?
A: The Screen was 1.979.

Q: With Ac-GAEEEIYGIFGAKKKG-NH2 [SrcTide (2014) peptide Ac-…-NH2] as the molecule, how does the KM (μM) of phosphorylation, Michaelis-Menten analysis, ADP-Quest assay [19] read?
A: The KM (μM) of phosphorylation, Michaelis-Menten analysis, ADP-Quest assay was 7 µM.

Q: For Ac-GAEEEIYGEFEAKKKG-NH2 [SrcTide (1995) peptide Ac-…-NH2], which KM (μM) of phosphorylation, Michaelis-Menten analysis, ADP-Quest assay [19] is on record?
A: Its KM (μM) of phosphorylation, Michaelis-Menten analysis, ADP-Quest assay is 64 µM.
